In patent US20170020909A1, “METHODS OF TREATING GLAUCOMA USING AMP-ACTIVATED PROTEIN KINASE (AMPK) ACTIVATORS” (Massachusetts Eye and Ear Infirmary, priority 2014, published 2017):

System: collagen IV
Test: Immunoblot of collagen IV in conditioned media of human TM cells
Type: cell-based
Conditions: 24 hours
Experimental: FIGS. 5A-E. AICAR suppresses ECM proteins in primary human TM cells under basal and TGF-β2 stimulatory conditions. (A) Representative immunoblots of ECM proteins from conditioned media (CM) of human TM cells treated for 24 hours with PBS vehicle or 0.5 mM AICAR and (B) integrated band intensities calculated from those immunoblots. (C) Representative immunoblots of ECM proteins from CM of human TM cells under stimulation with 2.5 ng/mL TGF-β2. Cells were pre-incubated for 1 hour with PBS or 0.5 mM AICAR prior to full 24-hour treatment. (D) Mean integrated band intensities. Data in panels B and D are expressed as mean±SEM (*p<0.05 vs. PBS vehicle by student t-test; n=5-7). (E) Representative 10% acrylamide gels stained with Coomassie Brilliant Blue as a loading control. […]
At the conclusion of each experiment for matricellular and ECM protein detection, conditioned media (CM) from TM cell cultures was harvested and centrifuged at 5000 rpm for 10 minutes at 4° C. The supernatant was then concentrated (Amicon Ultra-4 Filter Unit, 10 kDa; Millipore, Milford, Mass.), and protein content quantified using the DC Protein Assay kit adhering to manufacturer's protocols (Bio-Rad, Hercules, Calif.). […] Samples were then centrifuged at 14,000 rpm for 15 minutes at 4° C. and protein content quantified. […]

SMILES: NC(=O)c1ncn([C@@H]2O[C@H](CO)[C@@H](O)[C@H]2O)c1N [AICAR, 5-Aminoimidazole-4-carboxamide riboside]
- decrease in collagen IV (mean integrated band intensity) (0.5 mM AICAR vs PBS vehicle, basal): 52%
- decrease in collagen IV level (0.5 mM AICAR, under TGF-β2 stimulation with 2.5 ng/mL): 34%
